Read-outs that look alike come from different tables or passages of the source. Where a SMILES comes first, the peptide text is derived from it. [ ]: non-standard residue; d: D form. pT = C[C@@H](OP(=O)(O)O)[C@H](N)C(=O)O; pS = N[C@@H](COP(=O)(O)O)C(=O)O
Experiments:
14-3-3 isoform theta = target: T1, 14-3-3 isoform theta (Homo sapiens, UniProt P27348); assay: Label-free microscale thermophoresis (MST) binding, 14-3-3 theta; conditions: for Affinity estimates by MicroScale Thermophoresis, 14-3-3 isoform theta (Kd): label-free MST, 0.6 µM 14-3-3 protein, 25 mM MES pH 6.5, 5 mM MgCl2, 5 mM CaCl2, 25°C, Kd from duplicate measurements
T1 construct: His6; made in house; host or cells: Escherichia coli BL21 Rosetta (DE3)
T1 sequence (P27348 1-245): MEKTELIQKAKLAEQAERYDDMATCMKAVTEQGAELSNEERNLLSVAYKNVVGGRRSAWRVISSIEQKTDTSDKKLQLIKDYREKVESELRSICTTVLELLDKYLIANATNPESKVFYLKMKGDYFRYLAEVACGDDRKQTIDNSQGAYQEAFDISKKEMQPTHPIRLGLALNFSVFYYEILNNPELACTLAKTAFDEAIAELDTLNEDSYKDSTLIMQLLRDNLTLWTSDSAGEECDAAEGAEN
Description: (§1) The binding of phosphorylated sirtuin peptides (Fig. 1 ▸) was analyzed using the change in the intrinsic fluorescence signal of the 14-3-3 proteins measured with label-free microscale thermophoresis using a Nanotemper Monolith NT.LabelFree or NT.115. A typical binding experiment using 0.6 µM 14-3-3 protein was performed in a modified MST buffer consisting of 25 mM MES pH 6.5, 5 mM MgCl2, 5 mM CaCl2. The measurements were performed at 25°C using a LED power of 10–40%. All measurements were performed at least in duplicate, and the results shown are representative measurements individually fitted using GraFit 7 (Erathicus Software, Horley, United Kingdom).
(§2) Figure 1 Classification and analysis of sirtuin PSSM results for potential 14-3-3 phosphoserine binding sites. Peptides with a gray background were not analyzed experimentally. Score is the overall PSSM score for the phosphorylation site; rank is the order within the 17 proposed sirtuin binding sites. Conserved residues in the 14-3-3 motifs are marked in green. Residues with restricted (proline) or very flexible (glycine) protein backbone or with a very large side chain (tryptophan) are marked in red. Amino acids with the same or similar hydrophobicity/size are shown in magenta. Kd values from duplicate measurements are colored green for Kd < 100 µM. Fields marked in red indicate no binding or no successful experiment. TEXT PRINTED IN THE PICTURE: Sirt1 S26: Affinity estimates by MicroScale Thermophoresis [μM], 14-3-3 isoform sigma: none | Sirt1 S670: Affinity estimates by MicroScale Thermophoresis [μM], 14-3-3 isoform gamma: aggr.; Affinity estimates by MicroScale Thermophoresis [μM], 14-3-3 isoform epsilon: > 183; Affinity estimates by MicroScale Thermophoresis [μM], 14-3-3 isoform theta: 93; Affinity estimates by MicroScale Thermophoresis [μM], 14-3-3 isoform sigma: 5 | Sirt3 S103: Affinity estimates by MicroScale Thermophoresis [μM], 14-3-3 isoform gamma: aggr.; Affinity estimates by MicroScale Thermophoresis [μM], 14-3-3 isoform epsilon: > 267; Affinity estimates by MicroScale Thermophoresis [μM], 14-3-3 isoform theta: 52; Affinity estimates by MicroScale Thermophoresis [μM], 14-3-3 isoform sigma: 10 | Sirt3 S103wt: Affinity estimates by MicroScale Thermophoresis [μM], 14-3-3 isoform gamma: aggr.; Affinity estimates by MicroScale Thermophoresis [μM], 14-3-3 isoform theta: none; Affinity estimates by MicroScale Thermophoresis [μM], 14-3-3 isoform sigma: none | Sirt3 S105: Affinity estimates by MicroScale Thermophoresis [μM], 14-3-3 isoform gamma: aggr.; Affinity estimates by MicroScale Thermophoresis [μM], 14-3-3 isoform epsilon: > 215; Affinity estimates by MicroScale Thermophoresis [μM], 14-3-3 isoform theta: 60; Affinity estimates by MicroScale Thermophoresis [μM], 14-3-3 isoform sigma: none | Sirt5 S168: Affinity estimates by MicroScale Thermophoresis [μM], 14-3-3 isoform epsilon: aggr.; Affinity estimates by MicroScale Thermophoresis [μM], 14-3-3 isoform theta: aggr.; Affinity estimates by MicroScale Thermophoresis [μM], 14-3-3 isoform sigma: > 329 | Sirt6 T337: Affinity estimates by MicroScale Thermophoresis [μM], 14-3-3 isoform epsilon: > 420; Affinity estimates by MicroScale Thermophoresis [μM], 14-3-3 isoform sigma: 12 | Sirt6 S338: Affinity estimates by MicroScale Thermophoresis [μM], 14-3-3 isoform epsilon: 19; Affinity estimates by MicroScale Thermophoresis [μM], 14-3-3 isoform sigma: 24 | Sirt7 S136: Affinity estimates by MicroScale Thermophoresis [μM], 14-3-3 isoform epsilon: none; Affinity estimates by MicroScale Thermophoresis [μM], 14-3-3 isoform theta: 30; Affinity estimates by MicroScale Thermophoresis [μM], 14-3-3 isoform sigma: 49

14-3-3σ-ΔC = target: T2, 14-3-3σ-ΔC (Homo sapiens, UniProt P31947); assay: Label-free microscale thermophoresis (MST) binding, 14-3-3σ; conditions: for Affinity estimates by MicroScale Thermophoresis, 14-3-3 isoform sigma (Kd): Fig. 1, label-free MST, 0.6 µM 14-3-3 protein, 25 mM MES pH 6.5, 5 mM MgCl2, 5 mM CaCl2, 25°C, Kd from duplicate measurements
T2 construct: His6; made in house; host or cells: Escherichia coli BL21 Rosetta (DE3)
T2 sequence (P31947 1-231 limits assumed): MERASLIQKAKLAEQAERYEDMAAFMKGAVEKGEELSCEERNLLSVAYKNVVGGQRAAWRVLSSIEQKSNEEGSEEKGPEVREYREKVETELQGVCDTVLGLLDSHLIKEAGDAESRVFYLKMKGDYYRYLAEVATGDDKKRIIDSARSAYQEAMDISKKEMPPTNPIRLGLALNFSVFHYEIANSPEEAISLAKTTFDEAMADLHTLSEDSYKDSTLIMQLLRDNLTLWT
Description: as §1, §2
For nine of the sites, including sites from all sirtuin isoforms except Sirt4, endecameric phosphopeptides were chemically synthesized for in vitro analysis. […]

14-3-3 isoform gamma = target: T3, 14-3-3 isoform gamma (Homo sapiens, UniProt P61981); assay: Label-free microscale thermophoresis (MST) binding, 14-3-3 gamma; conditions: 0.6 µM 14-3-3 protein, 25 mM MES pH 6.5, 5 mM MgCl2, 5 mM CaCl2, 25°C, Kd from duplicate measurements, aggr. = no successful experiment
T3 construct: His6; made in house; host or cells: Escherichia coli BL21 Rosetta (DE3)
T3 sequence (P61981 1-247): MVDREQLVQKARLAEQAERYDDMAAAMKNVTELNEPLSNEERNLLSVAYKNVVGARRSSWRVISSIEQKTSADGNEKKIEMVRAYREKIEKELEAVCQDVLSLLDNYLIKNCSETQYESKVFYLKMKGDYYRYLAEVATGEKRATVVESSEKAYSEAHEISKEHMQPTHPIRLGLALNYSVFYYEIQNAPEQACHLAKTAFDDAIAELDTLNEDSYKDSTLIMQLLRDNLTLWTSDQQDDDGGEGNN
Description: as §1
Figure 1 Classification and analysis of sirtuin PSSM results for potential 14-3-3 phosphoserine binding sites. Peptides with a gray background were not analyzed experimentally. Score is the overall PSSM score for the phosphorylation site; rank is the order within the 17 proposed sirtuin binding sites. Conserved residues in the 14-3-3 motifs are marked in green. Residues with restricted (proline) or very flexible (glycine) protein backbone or with a very large side chain (tryptophan) are marked in red. Amino acids with the same or similar hydrophobicity/size are shown in magenta. Kd values from duplicate measurements are colored green for Kd < 100 µM. Fields marked in red indicate no binding or no successful experiment. […]

14-3-3 isoform epsilon = target: T4, 14-3-3 isoform epsilon (Homo sapiens, UniProt P62258); assay: Label-free microscale thermophoresis (MST) binding, 14-3-3 epsilon
T4 construct: His6; made in house; host or cells: Escherichia coli BL21 Rosetta (DE3)
T4 sequence (P62258 1-255): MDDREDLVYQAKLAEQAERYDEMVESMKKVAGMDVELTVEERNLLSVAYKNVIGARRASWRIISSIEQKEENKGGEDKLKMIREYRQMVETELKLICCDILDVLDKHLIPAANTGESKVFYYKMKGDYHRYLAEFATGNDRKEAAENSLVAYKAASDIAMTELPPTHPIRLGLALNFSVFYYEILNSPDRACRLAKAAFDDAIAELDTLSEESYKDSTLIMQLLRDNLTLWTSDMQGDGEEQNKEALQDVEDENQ
Description: as §1, §2

Compound | Affinity estimates by MicroScale Thermophoresis, 14-3-3 isoform theta (Kd) (14-3-3 isoform theta) | Affinity estimates by MicroScale Thermophoresis, 14-3-3 isoform sigma (Kd) (14-3-3σ-ΔC) | Affinity estimates by MicroScale Thermophoresis, 14-3-3 isoform gamma (Kd) (14-3-3 isoform gamma) | Kd (14-3-3 isoform theta) [µM] | Kd (14-3-3 isoform epsilon) [µM] | Kd (14-3-3σ-ΔC) [µM] | also measured
CC[C@H](C)[C@H](NC(=O)[C@H](CO)NC(=O)[C@H](CCCNC(=N)N)NC(=O)[C@H](CCCNC(=N)N)NC(=O)CN)C(=O)N[C@@H](CO)C(=O)N[C@@H](Cc1ccccc1)C(=O)N[C@@H](CO)C(=O)N[C@H](C(=O)NCC(=O)N[C@@H](C)C(=O)O)C(C)C [Sirt3^S103] (H-GRRSISFSVGA-OH) | none | none | aggr. | – | – | – | –
CC[C@H](C)[C@H](NC(=O)[C@H](CO)NC(=O)[C@H](CCCNC(=N)N)NC(=O)[C@H](CCCNC(=N)N)NC(=O)CN)C(=O)N[C@@H](COP(=O)(O)O)C(=O)N[C@@H](Cc1ccccc1)C(=O)N[C@@H](CO)C(=O)N[C@H](C(=O)NCC(=O)N[C@@H](C)C(=O)O)C(C)C [Sirt3^pS103] (H-GRRSI[pS]FSVGA-OH) | – | – | aggr. | 52 | > 267 | 2.1 ± 1.1 | –
CC[C@H](C)[C@H](NC(=O)[C@H](CO)NC(=O)[C@@H](N)CCCNC(=N)N)C(=O)N[C@@H](CO)C(=O)N[C@@H](Cc1ccccc1)C(=O)N[C@@H](COP(=O)(O)O)C(=O)N[C@H](C(=O)NCC(=O)N[C@@H](C)C(=O)N[C@@H](CO)C(=O)N[C@@H](CO)C(=O)O)C(C)C [Sirt3^pS105] (H-RSISF[pS]VGASS-OH) | – | none | aggr. | 60 | > 215 | 19.4 ± 3 | –
CC(C)[C@H](NC(=O)CNC(=O)[C@H](CS)NC(=O)[C@H](COP(=O)(O)O)NC(=O)[C@@H](NC(=O)[C@H](CS)NC(=O)[C@H](CCCNC(=N)N)NC(=O)[C@@H](NC(=O)[C@@H](N)CCCCN)[C@@H](C)O)[C@@H](C)O)C(=O)N[C@H](C(=O)N[C@@H](C)C(=O)O)C(C)C [Sirt5 S168] (H-KTRCT[pS]CGVVA-OH; N-terminus and C-terminus assumed) | aggr. | – | – | – | – | – | Affinity estimates by MicroScale Thermophoresis, 14-3-3 isoform epsilon (Kd) (14-3-3 isoform epsilon; label-free MST, 0.6 µM 14-3-3 protein, 25 mM MES pH 6.5, 5 mM MgCl2, 5 mM CaCl2, 25°C, Kd from duplicate measurements): aggr.
C[C@H](NC(=O)[C@@H]1CCCN1C(=O)[C@H](COP(=O)(O)O)NC(=O)[C@@H](NC(=O)[C@@H]1CCCN1C(=O)[C@H](CCCNC(=N)N)NC(=O)[C@H](CCC(=O)O)NC(=O)[C@@H](N)CCCNC(=N)N)[C@@H](C)O)C(=O)N1CCC[C@H]1C(=O)N[C@@H](Cc1c[nH]cn1)C(=O)N[C@@H](CCCNC(=N)N)C(=O)O [Sirt6^pS338] (H-RERPT[pS]PAPHR-OH) | – | – | – | – | – | – | Kd (14-3-3 isoform epsilon; label-free MST, 0.6 µM 14-3-3 protein, 25 mM MES pH 6.5, 5 mM MgCl2, 5 mM CaCl2, 25°C, Kd from duplicate measurements, read-out: Affinity estimates by MicroScale Thermophoresis, 14-3-3 isoform epsilon (Kd)): 19 µM
C[C@H](NC(=O)[C@@H]1CCCN1C(=O)[C@H](CO)NC(=O)[C@@H](NC(=O)[C@@H]1CCCN1C(=O)[C@H](CCCNC(=N)N)NC(=O)[C@H](CCC(=O)O)NC(=O)[C@H](CCCNC(=N)N)NC(=O)[C@@H](N)CCCCN)[C@@H](C)OP(=O)(O)O)C(=O)N1CCC[C@H]1C(=O)N[C@@H](Cc1c[nH]cn1)C(=O)O [Sirt6^pT337] (H-KRERP[pT]SPAPH-OH) | – | – | – | – | > 420 | – | –
